Key:
Experiment in all cases: radiometric filter-binding kinase assay
INSR (human) = INSR (human) (UniProt P06213)
MAPK15 (human) = MAPK15 (human) (UniProt Q8TD08)
EPHA2 (human) = EPHA2 (human) (UniProt P29317)
MAP2K1 (human) = MAP2K1 (human) (UniProt Q02750)
CaMK1 (human) = CaMK1 (human) (UniProt Q14012)
NUAK1 (human) = NUAK1 (human) (UniProt O60285)
LCK (mouse) = conditions: accession and sequence are those of the human protein
BRSK1 (human) = BRSK1 (human) (UniProt Q8TDC3)
MARK1 (human) = MARK1 (human) (UniProt Q9P0L2)
PHKG1 (human) = PHKG1 (human) (UniProt Q16816)
MINK1 (human) = MINK1 (human) (UniProt Q8N4C8)
HIPK3 (human) = HIPK3 (human) (UniProt Q9H422)
EPHA4 (human) = EPHA4 (human) (UniProt P54764)
EPHB2 (human) = EPHB2 (human) (UniProt P29323)
PRKACA (human) = PRKACA (human) (UniProt P17612)
JAK2 JH1 JH2 (human) = JAK2 JH1 JH2 (human) (UniProt O60674)
BTK (human) = BTK (human) (UniProt Q06187)
NEK2 (human) = NEK2 (human) (UniProt P51955)
RPS6KA5 KD1 KD2 (human) = RPS6KA5 KD1 KD2 (human) (UniProt O75582)
MARK2 (human) = MARK2 (human) (UniProt Q7KZI7)
MST4 (human) = MST4 (human) (UniProt Q9P289)
INSRR (human) = INSRR (human) (UniProt P14616)
MAPKAPK2 (human) = MAPKAPK2 (human) (UniProt P49137)
NEK6 (human) = NEK6 (human) (UniProt Q9HC98)
CSK (human) = CSK (human) (UniProt P41240)
PAK7 (human) = PAK7 (human) (UniProt Q9P286)
MKNK1 (human) = MKNK1 (human) (UniProt Q9BUB5)
CAMKK2 (human) = CAMKK2 (human) (UniProt Q96RR4)
RIPK2 (human) = RIPK2 (human) (UniProt O43353)
ERBB4 (human) = ERBB4 (human) (UniProt Q15303)
DYRK2 (human) = DYRK2 (human) (UniProt Q92630)
CDK2 CCNA2 (human) = CDK2 CCNA2 (human) (UniProt P20248+P24941)
PRKAA1 or PRKAA2 (rat) = conditions: accession and sequence are those of the human protein
PRKCA (human) = PRKCA (human) (UniProt P17252)
SRPK1 (human) = SRPK1 (human) (UniProt Q96SB4)

Sequence of CAMKK2 (human) (Q96RR4 whole entry, looked up): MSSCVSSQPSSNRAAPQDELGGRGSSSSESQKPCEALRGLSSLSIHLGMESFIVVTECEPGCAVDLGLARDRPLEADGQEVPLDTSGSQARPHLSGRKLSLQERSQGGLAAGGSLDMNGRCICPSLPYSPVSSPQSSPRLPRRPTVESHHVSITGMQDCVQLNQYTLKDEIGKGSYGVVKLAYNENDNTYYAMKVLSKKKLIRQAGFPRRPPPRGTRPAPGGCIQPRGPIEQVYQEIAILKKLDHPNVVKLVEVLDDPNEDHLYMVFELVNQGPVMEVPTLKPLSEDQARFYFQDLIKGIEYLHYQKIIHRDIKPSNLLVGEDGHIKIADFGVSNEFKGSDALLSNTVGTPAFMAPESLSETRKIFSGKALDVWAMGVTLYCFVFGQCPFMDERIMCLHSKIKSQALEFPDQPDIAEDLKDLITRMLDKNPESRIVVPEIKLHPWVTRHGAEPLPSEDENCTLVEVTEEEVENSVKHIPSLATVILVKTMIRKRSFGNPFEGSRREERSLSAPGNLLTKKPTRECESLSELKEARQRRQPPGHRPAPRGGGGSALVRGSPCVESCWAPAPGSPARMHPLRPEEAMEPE
Sequence of MST4 (human) (Q9P289 whole entry, looked up): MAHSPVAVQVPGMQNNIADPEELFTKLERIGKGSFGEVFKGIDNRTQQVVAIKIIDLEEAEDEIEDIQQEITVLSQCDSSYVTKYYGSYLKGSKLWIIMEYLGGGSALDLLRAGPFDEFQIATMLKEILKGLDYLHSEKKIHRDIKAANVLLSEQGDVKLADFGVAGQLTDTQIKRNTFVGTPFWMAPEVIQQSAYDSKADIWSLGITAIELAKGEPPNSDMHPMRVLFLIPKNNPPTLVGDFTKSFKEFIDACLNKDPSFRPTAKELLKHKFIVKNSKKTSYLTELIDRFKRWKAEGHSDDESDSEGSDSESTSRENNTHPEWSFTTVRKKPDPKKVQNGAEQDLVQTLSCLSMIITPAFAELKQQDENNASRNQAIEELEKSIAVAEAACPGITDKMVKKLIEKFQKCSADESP
Sequence of EPHB2 (human) (P29323 whole entry, looked up): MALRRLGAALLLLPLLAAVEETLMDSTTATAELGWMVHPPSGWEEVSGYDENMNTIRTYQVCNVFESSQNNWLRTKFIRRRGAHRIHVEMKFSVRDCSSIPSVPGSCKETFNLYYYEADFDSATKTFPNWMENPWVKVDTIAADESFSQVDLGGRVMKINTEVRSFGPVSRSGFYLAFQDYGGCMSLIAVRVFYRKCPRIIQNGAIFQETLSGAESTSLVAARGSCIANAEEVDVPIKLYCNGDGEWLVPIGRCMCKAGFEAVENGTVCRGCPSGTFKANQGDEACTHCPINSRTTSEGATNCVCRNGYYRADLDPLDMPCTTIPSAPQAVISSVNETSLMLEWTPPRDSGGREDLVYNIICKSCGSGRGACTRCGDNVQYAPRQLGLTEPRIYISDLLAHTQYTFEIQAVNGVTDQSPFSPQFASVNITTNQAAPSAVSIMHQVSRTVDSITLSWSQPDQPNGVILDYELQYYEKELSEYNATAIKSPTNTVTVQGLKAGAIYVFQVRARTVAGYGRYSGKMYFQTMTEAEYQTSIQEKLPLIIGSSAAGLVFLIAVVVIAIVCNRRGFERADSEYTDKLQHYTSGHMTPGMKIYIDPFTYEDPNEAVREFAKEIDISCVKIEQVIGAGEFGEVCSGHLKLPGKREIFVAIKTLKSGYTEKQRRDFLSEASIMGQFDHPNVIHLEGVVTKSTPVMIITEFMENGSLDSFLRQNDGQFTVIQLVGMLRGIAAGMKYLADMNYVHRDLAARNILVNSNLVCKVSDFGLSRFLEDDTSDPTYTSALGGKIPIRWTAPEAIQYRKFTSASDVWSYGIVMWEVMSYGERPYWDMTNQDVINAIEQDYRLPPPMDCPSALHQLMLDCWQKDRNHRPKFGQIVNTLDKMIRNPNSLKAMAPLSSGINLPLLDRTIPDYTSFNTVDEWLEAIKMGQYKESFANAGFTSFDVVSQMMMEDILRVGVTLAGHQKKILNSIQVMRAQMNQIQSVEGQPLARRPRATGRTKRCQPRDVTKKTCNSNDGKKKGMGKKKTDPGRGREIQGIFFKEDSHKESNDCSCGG
Sequence of NEK6 (human) (Q9HC98 whole entry, looked up): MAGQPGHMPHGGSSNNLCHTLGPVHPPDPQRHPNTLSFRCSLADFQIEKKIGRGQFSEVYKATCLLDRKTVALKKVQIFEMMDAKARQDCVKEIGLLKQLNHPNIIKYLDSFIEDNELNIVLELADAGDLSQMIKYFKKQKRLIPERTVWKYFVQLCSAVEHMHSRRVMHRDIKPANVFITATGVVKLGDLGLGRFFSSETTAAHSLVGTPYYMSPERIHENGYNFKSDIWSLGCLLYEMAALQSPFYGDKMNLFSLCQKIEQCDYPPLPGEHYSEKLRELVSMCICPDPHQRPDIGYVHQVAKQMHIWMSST
Sequence of BRSK1 (human) (Q8TDC3 whole entry, looked up): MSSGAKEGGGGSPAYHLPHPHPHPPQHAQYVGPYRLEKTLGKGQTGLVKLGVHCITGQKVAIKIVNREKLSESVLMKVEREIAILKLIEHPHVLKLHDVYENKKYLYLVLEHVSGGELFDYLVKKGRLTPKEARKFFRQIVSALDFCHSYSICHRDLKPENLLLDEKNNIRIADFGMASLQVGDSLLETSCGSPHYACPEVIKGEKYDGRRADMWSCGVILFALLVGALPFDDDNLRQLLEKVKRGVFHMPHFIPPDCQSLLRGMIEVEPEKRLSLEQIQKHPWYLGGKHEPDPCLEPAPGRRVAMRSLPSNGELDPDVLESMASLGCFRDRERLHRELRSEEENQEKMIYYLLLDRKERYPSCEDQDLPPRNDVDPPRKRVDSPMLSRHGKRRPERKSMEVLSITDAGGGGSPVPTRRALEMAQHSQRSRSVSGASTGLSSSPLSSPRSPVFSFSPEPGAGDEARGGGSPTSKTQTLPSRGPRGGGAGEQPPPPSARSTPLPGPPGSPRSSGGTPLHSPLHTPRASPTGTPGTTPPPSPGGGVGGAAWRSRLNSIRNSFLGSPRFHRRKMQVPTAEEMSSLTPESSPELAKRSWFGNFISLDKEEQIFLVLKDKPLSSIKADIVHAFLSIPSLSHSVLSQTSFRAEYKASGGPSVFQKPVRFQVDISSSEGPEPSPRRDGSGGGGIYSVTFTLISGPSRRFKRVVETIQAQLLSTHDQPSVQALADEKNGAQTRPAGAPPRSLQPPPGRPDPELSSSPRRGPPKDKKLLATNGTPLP
Sequence of CSK (human) (P41240 whole entry, looked up): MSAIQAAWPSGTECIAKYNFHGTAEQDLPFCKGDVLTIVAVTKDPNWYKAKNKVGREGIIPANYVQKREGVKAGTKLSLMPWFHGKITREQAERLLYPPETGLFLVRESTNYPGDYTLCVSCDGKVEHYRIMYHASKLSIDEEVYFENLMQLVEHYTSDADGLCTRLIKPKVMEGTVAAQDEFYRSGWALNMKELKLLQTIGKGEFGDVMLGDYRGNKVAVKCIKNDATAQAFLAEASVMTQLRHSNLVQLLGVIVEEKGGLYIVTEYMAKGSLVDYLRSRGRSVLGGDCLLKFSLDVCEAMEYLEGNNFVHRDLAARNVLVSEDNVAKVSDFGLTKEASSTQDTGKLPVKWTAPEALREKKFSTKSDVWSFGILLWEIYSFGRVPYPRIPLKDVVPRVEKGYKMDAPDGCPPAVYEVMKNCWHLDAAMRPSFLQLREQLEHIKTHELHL
Sequence of INSR (human) (P06213 whole entry, looked up): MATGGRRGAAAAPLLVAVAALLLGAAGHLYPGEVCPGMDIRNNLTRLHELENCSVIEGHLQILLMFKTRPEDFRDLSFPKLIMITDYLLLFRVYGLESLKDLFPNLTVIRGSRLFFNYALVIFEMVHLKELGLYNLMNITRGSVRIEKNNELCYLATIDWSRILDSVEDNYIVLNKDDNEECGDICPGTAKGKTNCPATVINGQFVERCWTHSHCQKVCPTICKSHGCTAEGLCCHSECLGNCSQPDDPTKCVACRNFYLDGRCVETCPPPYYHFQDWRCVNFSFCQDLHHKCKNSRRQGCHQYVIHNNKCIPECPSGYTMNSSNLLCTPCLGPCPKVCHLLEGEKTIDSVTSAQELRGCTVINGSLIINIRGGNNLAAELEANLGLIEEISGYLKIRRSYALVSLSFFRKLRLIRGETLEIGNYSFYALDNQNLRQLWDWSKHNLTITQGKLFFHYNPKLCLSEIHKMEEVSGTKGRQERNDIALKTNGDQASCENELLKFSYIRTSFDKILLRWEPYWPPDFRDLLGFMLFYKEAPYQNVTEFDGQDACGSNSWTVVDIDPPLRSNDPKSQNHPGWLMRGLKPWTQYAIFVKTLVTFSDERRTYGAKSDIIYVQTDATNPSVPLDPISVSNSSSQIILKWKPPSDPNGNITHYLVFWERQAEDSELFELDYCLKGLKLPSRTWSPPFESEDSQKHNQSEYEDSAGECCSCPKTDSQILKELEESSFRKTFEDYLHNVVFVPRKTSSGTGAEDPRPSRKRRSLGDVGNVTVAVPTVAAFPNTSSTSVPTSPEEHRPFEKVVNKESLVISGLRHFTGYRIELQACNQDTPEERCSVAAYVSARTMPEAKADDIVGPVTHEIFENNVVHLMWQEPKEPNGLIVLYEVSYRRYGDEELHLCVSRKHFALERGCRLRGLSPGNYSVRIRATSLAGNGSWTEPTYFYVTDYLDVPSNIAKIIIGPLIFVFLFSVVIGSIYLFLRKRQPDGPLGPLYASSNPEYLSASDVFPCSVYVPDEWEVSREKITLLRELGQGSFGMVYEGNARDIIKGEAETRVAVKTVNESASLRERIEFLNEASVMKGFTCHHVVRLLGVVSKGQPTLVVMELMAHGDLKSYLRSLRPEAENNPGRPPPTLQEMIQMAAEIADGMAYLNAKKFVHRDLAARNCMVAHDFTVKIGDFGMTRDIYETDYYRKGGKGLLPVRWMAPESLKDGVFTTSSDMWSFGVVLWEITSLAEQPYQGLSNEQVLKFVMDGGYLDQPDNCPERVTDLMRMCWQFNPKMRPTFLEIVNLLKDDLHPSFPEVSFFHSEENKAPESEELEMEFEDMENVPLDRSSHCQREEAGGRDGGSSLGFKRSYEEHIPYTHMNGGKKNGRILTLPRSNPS

For `CNC(=O)C1[C@H]2O[C@@](C)([C@@H]1N)n1c3ccccc3c3c4c(c5c6ccccc6n2c5c31)C(=O)NC4` (stereo partly drawn), the residual activity (INSR (human); compound 0.01 µM) was 120%, the residual activity (INSR (human); compound 0.1 µM) was 76% and the residual activity (INSR (human); compound 1.0 µM) was 11%. For the same compound, the residual activity (MAPK15 (human); compound 0.01 µM) was 48%, the residual activity (MAPK15 (human); compound 0.1 µM) was 8% and the residual activity (MAPK15 (human); compound 1.0 µM) was 11%. For the same compound, the residual activity (EPHA2 (human); compound 0.01 µM) was 92%, the residual activity (EPHA2 (human); compound 0.1 µM) was 53% and the residual activity (EPHA2 (human); compound 1.0 µM) was 19%. It also gave a residual activity (MAP2K1 (human); compound 0.01 µM) of 9%, a residual activity (MAP2K1 (human); compound 0.1 µM) of 0% and a residual activity (MAP2K1 (human); compound 1.0 µM) of 0%. For the same compound, the residual activity (CaMK1 (human); compound 0.01 µM) was 97%, the residual activity (CaMK1 (human); compound 0.1 µM) was 25% and the residual activity (CaMK1 (human); compound 1.0 µM) was 4%. It also gave a residual activity (NUAK1 (human); compound 0.01 µM) of 2%, a residual activity (NUAK1 (human); compound 0.1 µM) of 2% and a residual activity (NUAK1 (human); compound 1.0 µM) of 1%. The residual activity (LCK (mouse); compound 0.01 µM) was 44%, the residual activity (LCK (mouse); compound 0.1 µM) was 13% and the residual activity (LCK (mouse); compound 1.0 µM) was 3%. For the same compound, the residual activity (BRSK1 (human); compound 0.01 µM) was 61%, the residual activity (BRSK1 (human); compound 0.1 µM) was 3% and the residual activity (BRSK1 (human); compound 1.0 µM) was 1%. For the same compound, the residual activity (MARK1 (human); compound 0.01 µM) was 11%, the residual activity (MARK1 (human); compound 0.1 µM) was 5% and the residual activity (MARK1 (human); compound 1.0 µM) was 5%. The residual activity (PHKG1 (human); compound 0.1 µM) was 1%, the residual activity (PHKG1 (human); compound 1.0 µM) was 1% and the residual activity (MINK1 (human); compound 0.01 µM) was 4%. The residual activity (MINK1 (human); compound 0.1 µM) was 3%, the residual activity (MINK1 (human); compound 1.0 µM) was 2% and the residual activity (HIPK3 (human); compound 0.01 µM) was 83%. For the same compound, the residual activity (HIPK3 (human); compound 0.1 µM) was 43%, the residual activity (HIPK3 (human); compound 1.0 µM) was 10% and the residual activity (EPHA4 (human); compound 0.01 µM) was 95%. The residual activity (EPHA4 (human); compound 0.1 µM) was 61%, the residual activity (EPHA4 (human); compound 1.0 µM) was 16% and the residual activity (EPHB2 (human); compound 0.01 µM) was 108%. The residual activity (EPHB2 (human); compound 0.1 µM) was 89%, the residual activity (EPHB2 (human); compound 1.0 µM) was 34% and the residual activity (PRKACA (human); compound 0.01 µM) was 29%. The residual activity (PRKACA (human); compound 0.1 µM) was 5%, the residual activity (PRKACA (human); compound 1.0 µM) was 2% and the residual activity (JAK2 JH1 JH2 (human); compound 0.01 µM) was 10%. It also gave a residual activity (JAK2 JH1 JH2 (human); compound 0.1 µM) of 12%, a residual activity (JAK2 JH1 JH2 (human); compound 1.0 µM) of 7% and a residual activity (BTK (human); compound 0.01 µM) of 49%. The residual activity (BTK (human); compound 0.1 µM) was 11%, the residual activity (BTK (human); compound 1.0 µM) was 9% and the residual activity (NEK2 (human); compound 0.01 µM) was 105%. The residual activity (NEK2 (human); compound 0.1 µM) was 105%, the residual activity (NEK2 (human); compound 1.0 µM) was 66% and the residual activity (RPS6KA5 KD1 KD2 (human); compound 0.01 µM) was 41%. For the same compound, the residual activity (RPS6KA5 KD1 KD2 (human); compound 0.1 µM) was 10%, the residual activity (RPS6KA5 KD1 KD2 (human); compound 1.0 µM) was 2% and the residual activity (MARK2 (human); compound 0.01 µM) was 11%. The residual activity (MARK2 (human); compound 0.1 µM) was 5%, the residual activity (MARK2 (human); compound 1.0 µM) was 4% and the residual activity (MST4 (human); compound 0.01 µM) was 86%. It also gave a residual activity (MST4 (human); compound 0.1 µM) of 26%, a residual activity (MST4 (human); compound 1.0 µM) of 20% and a residual activity (INSRR (human); compound 0.01 µM) of 47%. The residual activity (INSRR (human); compound 0.1 µM) was 12%, the residual activity (INSRR (human); compound 1.0 µM) was 9% and the residual activity (MAPKAPK2 (human); compound 0.01 µM) was 19%. It also gave a residual activity (MAPKAPK2 (human); compound 0.1 µM) of 0%, a residual activity (MAPKAPK2 (human); compound 1.0 µM) of -1% and a residual activity (NEK6 (human); compound 0.01 µM) of 87%. It also gave a residual activity (NEK6 (human); compound 0.1 µM) of 89%, a residual activity (NEK6 (human); compound 1.0 µM) of 72% and a residual activity (CSK (human); compound 0.01 µM) of 112%. The residual activity (CSK (human); compound 0.1 µM) was 73%, the residual activity (CSK (human); compound 1.0 µM) was 20% and the residual activity (PAK7 (human); compound 0.01 µM) was 17%. It also gave a residual activity (PAK7 (human); compound 0.1 µM) of 4%, a residual activity (PAK7 (human); compound 1.0 µM) of 2% and a residual activity (MKNK1 (human); compound 0.01 µM) of 61%. The residual activity (MKNK1 (human); compound 0.1 µM) was 16%, the residual activity (MKNK1 (human); compound 1.0 µM) was 9% and the residual activity (CAMKK2 (human); compound 0.01 µM) was 64%. The residual activity (CAMKK2 (human); compound 0.1 µM) was 14%, the residual activity (CAMKK2 (human); compound 1.0 µM) was 11% and the residual activity (RIPK2 (human); compound 0.01 µM) was 80%. It also gave a residual activity (RIPK2 (human); compound 0.1 µM) of 26%, a residual activity (RIPK2 (human); compound 1.0 µM) of 9% and a residual activity (ERBB4 (human); compound 0.01 µM) of 96%. For the same compound, the residual activity (ERBB4 (human); compound 0.1 µM) was 63%, the residual activity (ERBB4 (human); compound 1.0 µM) was 14% and the residual activity (DYRK2 (human); compound 0.01 µM) was 41%. For the same compound, the residual activity (DYRK2 (human); compound 0.1 µM) was 9%, the residual activity (DYRK2 (human); compound 1.0 µM) was 4% and the residual activity (CDK2 CCNA2 (human); compound 0.01 µM) was 18%. For the same compound, the residual activity (CDK2 CCNA2 (human); compound 0.1 µM) was 9%, the residual activity (CDK2 CCNA2 (human); compound 1.0 µM) was 8% and the residual activity (PRKAA1 or PRKAA2 (rat); compound 0.01 µM) was 6%. It also gave a residual activity (PRKAA1 or PRKAA2 (rat); compound 0.1 µM) of 2%, a residual activity (PRKAA1 or PRKAA2 (rat); compound 1.0 µM) of 1% and a residual activity (PRKCA (human); compound 0.01 µM) of 79%. For the same compound, the residual activity (PRKCA (human); compound 0.1 µM) was 44%, the residual activity (SRPK1 (human); compound 0.01 µM) was 89% and the residual activity (SRPK1 (human); compound 0.1 µM) was 53%. The residual activity (SRPK1 (human); compound 1.0 µM) was 11%.

— the kinase profiling compilation of Christmann-Franck et al. (2016)
